Laboratory results: PubChem BioAssay AID1963974 (Molecular Pharmacology Branch, DTP, NCI, 2024)
Values joined by “and” are separate entries in the source; they are usually repeats but may differ in a detail not shown here. Equal entries are not always repeated.

Tested on: 648629-189-R-J1-PDC spheroids with HUVEC/MSC, viability
Test: Anticancer human tumor 648629-189-R-J1-PDC patient-derived bladder carcinoma cell line growth inhibition [PI3K]
Settings: for viability, T/C: stronger effect = lower value; active means viability on the fitted dose curve at most 10% of control; inactive means the rest
In short: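 Complex 3D spheroids (cancer cells + endothelial HUVEC + mesenchymal stem cells); drug pairs of targeted agent x inavolisib/alpelisib/duvelisib/copanlisib; half-log series from ~Cmax, max 10 microM if Cmax unknown; endpoint viability.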

[1] = curve of first compound, second compound 0.00316 µM
[2] = curve of first compound, second compound 0.01 µM
[3] = curve of first compound, second compound 0.0316 µM
[4] = curve of first compound, second compound 0.1 µM
[5] = curve of first compound, second compound 0.316 µM
[6] = curve of first compound, second compound 1 µM
[7] = second compound 0.00316 µM, first compound 0.0316 µM
[8] = second compound 0.00316 µM, first compound 0.1 µM
[9] = second compound 0.00316 µM, first compound 0.316 µM
[10] = second compound 0.00316 µM, first compound 1 µM
[11] = second compound 0.00316 µM, first compound 3.16 µM
[12] = second compound 0.00316 µM, first compound 10 µM
[13] = second compound 0.01 µM, first compound 0.0316 µM
[14] = second compound 0.01 µM, first compound 0.1 µM
[15] = second compound 0.01 µM, first compound 0.316 µM
[16] = second compound 0.01 µM, first compound 1 µM
[17] = second compound 0.01 µM, first compound 3.16 µM
[18] = second compound 0.01 µM, first compound 10 µM
[19] = second compound 0.0316 µM, first compound 0.0316 µM
[20] = second compound 0.0316 µM, first compound 0.1 µM
[21] = second compound 0.0316 µM, first compound 0.316 µM
[22] = second compound 0.0316 µM, first compound 1 µM
[23] = second compound 0.0316 µM, first compound 3.16 µM
[24] = second compound 0.0316 µM, first compound 10 µM
[25] = second compound 0.1 µM, first compound 0.0316 µM
[26] = second compound 0.1 µM, first compound 0.1 µM
[27] = second compound 0.1 µM, first compound 0.316 µM
[28] = second compound 0.1 µM, first compound 1 µM
[29] = second compound 0.1 µM, first compound 3.16 µM
[30] = second compound 0.1 µM, first compound 10 µM
[31] = second compound 0.316 µM, first compound 0.0316 µM
[32] = second compound 0.316 µM, first compound 0.1 µM
[33] = second compound 0.316 µM, first compound 0.316 µM
[34] = second compound 0.316 µM, first compound 1 µM
[35] = second compound 0.316 µM, first compound 3.16 µM
[36] = second compound 0.316 µM, first compound 10 µM
[37] = second compound 1 µM, first compound 0.0316 µM
[38] = second compound 1 µM, first compound 0.1 µM
[39] = second compound 1 µM, first compound 0.316 µM
[40] = second compound 1 µM, first compound 1 µM
[41] = second compound 1 µM, first compound 3.16 µM
[42] = second compound 1 µM, first compound 10 µM
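Further: spheroids exposed to agents for seven days before reading.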
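Wherever viability, T/C is given: percent of vehicle control luminescence where 100% = DMSO treated spheroids.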

C#Cc1c(F)ccc2cc(O)cc(-c3ncc4c(N5CC6CCC(C5)N6)nc(OCC56CCCN5CC(F)C6)nc4c3F)c12 (stereo not drawn) + COc1c(OCCCN2CCOCC2)ccc2c3n(c(=NC(=O)c4cnc(N)nc4)nc12)CCN3
< 31.6 nM: IC50 [5] | IC50 [6]
inactive: viability, T/C [7] 107% | viability, T/C [8] 100% | viability, T/C [9] 96.5% | viability, T/C [10] 112% | viability, T/C [11] 105% | viability, T/C [12] 94.6% | viability, T/C [13] 112% | viability, T/C [14] 104% | viability, T/C [15] 103% | viability, T/C [16] 113% | viability, T/C [17] 102% | viability, T/C [18] 103% | viability, T/C [19] 89.4% | viability, T/C [20] 91.2% | viability, T/C [21] 85.9% | viability, T/C [22] 92.2% | viability, T/C [23] 79.7% | viability, T/C [24] 91.5% | viability, T/C [25] 67.2% | viability, T/C [26] 61.3% | viability, T/C [27] 58.2% | viability, T/C [28] 60.6% | viability, T/C [29] 65.1% | viability, T/C [30] 57.5% | viability, T/C [31] 24.3% | viability, T/C [32] 21.2% | viability, T/C [33] 18.3% | viability, T/C [34] 19.8% | viability, T/C [35] 17.9% | viability, T/C [36] 5.74%
active: viability, T/C [37] 3.22% | viability, T/C [38] 2.48% | viability, T/C [39] 2.94% | viability, T/C [40] 3.35% | viability, T/C [41] 3.07% | viability, T/C [42] 0.58%
> 10000 nM: IC50 [1] | IC50 [2] | IC50 [3] | IC50 [4]

Cn1cnc2c(F)c(Nc3ccc(Br)cc3Cl)c(C(=O)NOCCO)cc21
inactive: viability, T/C (compound 0.00949 µM) 108% and 98.8% (2×) and 95.3% | viability, T/C (compound 0.03 µM) 96.8% [middle of 4 runs] | viability, T/C (compound 0.0949 µM) 99.2% [middle of 4 runs] | viability, T/C (compound 0.3 µM) 94.5% [middle of 4 runs] | viability, T/C (compound 0.949 µM) 103% [middle of 4 runs] | viability, T/C (compound 3 µM) 84.9% [middle of 4 runs]
> 3000 nM: IC50 (curve of compound)

CCN1CCN(Cc2ccc(Nc3ncc(F)c(-c4cc(F)c5nc(C)n(C(C)C)c5c4)n3)nc2)CC1 + Cc1nc(NC(=O)N2CCCC2C(N)=O)sc1-c1ccnc(C(C)(C)C(F)(F)F)c1
> 1000 nM: IC50 [3] | IC50 [4] | IC50 [5] | IC50 [6] | IC50 (curve of first compound, second compound 3.16 µM)
< 3.16 nM: IC50 (curve of first compound, second compound 10 µM)
inactive: viability, T/C (second compound 0.0316 µM, first compound 0.00316 µM) 96.4% | viability, T/C (second compound 0.0316 µM, first compound 0.01 µM) 107% | viability, T/C [19] 104% | viability, T/C [20] 99.2% | viability, T/C [21] 119% | viability, T/C [22] 120% | viability, T/C (second compound 0.1 µM, first compound 0.00316 µM) 101% | viability, T/C (second compound 0.1 µM, first compound 0.01 µM) 103% | viability, T/C [25] 101% | viability, T/C [26] 114% | viability, T/C [27] 100% | viability, T/C [28] 109% | viability, T/C (second compound 0.316 µM, first compound 0.00316 µM) 88.8% | viability, T/C (second compound 0.316 µM, first compound 0.01 µM) 93.7% | viability, T/C [31] 90% | viability, T/C [32] 91.6% | viability, T/C [33] 96.9% | viability, T/C [34] 101% | viability, T/C (second compound 1 µM, first compound 0.00316 µM) 78.2% | viability, T/C (second compound 1 µM, first compound 0.01 µM) 75.5% | viability, T/C [37] 73% | viability, T/C [38] 80.4% | viability, T/C [39] 83.6% | viability, T/C [40] 83.1% | viability, T/C (second compound 3.16 µM, first compound 0.00316 µM) 49.9% | viability, T/C (second compound 3.16 µM, first compound 0.01 µM) 57.7% | viability, T/C (second compound 3.16 µM, first compound 0.0316 µM) 53.8% | viability, T/C (second compound 3.16 µM, first compound 0.1 µM) 59.3% | viability, T/C (second compound 3.16 µM, first compound 0.316 µM) 64.7% | viability, T/C (second compound 3.16 µM, first compound 1 µM) 69.8% | viability, T/C (second compound 10 µM, first compound 0.00316 µM) 41.9% | viability, T/C (second compound 10 µM, first compound 0.01 µM) 38.8% | viability, T/C (second compound 10 µM, first compound 0.0316 µM) 40.7% | viability, T/C (second compound 10 µM, first compound 0.1 µM) 41.5% | viability, T/C (second compound 10 µM, first compound 0.316 µM) 43.5% | viability, T/C (second compound 10 µM, first compound 1 µM) 41.6%

CC(Cn1ccc(-c2ccc(C#N)c(Cl)c2)n1)NC(=O)c1cc(C(C)O)[nH]n1 (stereo not drawn) + COc1c(OCCCN2CCOCC2)ccc2c3n(c(=NC(=O)c4cnc(N)nc4)nc12)CCN3
> 10000 nM: IC50 [1] | IC50 [2] | IC50 [3] | IC50 [4]
inactive: viability, T/C [7] 94.9% | viability, T/C [8] 92.4% | viability, T/C [9] 97.9% | viability, T/C [10] 96.4% | viability, T/C [11] 83.8% | viability, T/C [12] 73.9% | viability, T/C [13] 100% | viability, T/C [14] 105% | viability, T/C [15] 102% | viability, T/C [16] 92.7% | viability, T/C [17] 89.1% | viability, T/C [18] 74.3% | viability, T/C [19] 96.5% | viability, T/C [20] 93.5% | viability, T/C [21] 95.8% | viability, T/C [22] 90.4% | viability, T/C [23] 86.5% | viability, T/C [24] 70.8% | viability, T/C [25] 65.9% | viability, T/C [26] 64.1% | viability, T/C [27] 77.5% | viability, T/C [28] 65.5% | viability, T/C [29] 64% | viability, T/C [30] 61.5% | viability, T/C [31] 23% | viability, T/C [32] 18.7% | viability, T/C [33] 22.9% | viability, T/C [34] 23.2% | viability, T/C [35] 26.4% | viability, T/C [36] 21.3%
active: viability, T/C [37] 3.56% | viability, T/C [38] 3.29% | viability, T/C [39] 3.07% | viability, T/C [40] 3.97% | viability, T/C [41] 4.94% | viability, T/C [42] 2.75%
< 31.6 nM: IC50 [5] | IC50 [6]
